Like-named read-outs stand apart in the source and are kept apart here. *1 amine or outer side, *2 acyl side, *3 side chain or, on linkers, in order; H or OH if unused. Where a SMILES comes first, the peptide text is derived from it. Bridges are numbered along the chain shown (N, C = ends). [ ]: non-standard residue; d: D form. The star is where a group is joined. X146 = CC(C)C(=O)N1[C@@H]2CC[C@H]1C=C(c1ccc(Cl)cc1C[C@@H](C(=O)[*:2])N(C)[*:1])C2; NMePhe(2-(4-MorPh),5-Cl) = CN[C@@H](Cc1cc(Cl)ccc1-c1ccc(N2CCOCC2)cc1)C(=O)O; X150 = CC(C)C(=O)N1C2C=C(c3ccc(F)cc3C[C@@H](C(=O)[*:2])N(C)[*:1])CC1CC2; X191 = CN([C@@H](Cc1cc(Cl)ccc1-c1ccc(N2CCOCC2)c(F)c1F)C(=O)[*:2])[*:1]; X142 = CN([C@@H](Cc1cc(Cl)ccc1C1=CCN(S(C)(=O)=O)CC1)C(=O)[*:2])[*:1]; X130 = CN([C@@H](Cc1cc(F)ccc1-c1ccn(S(C)(=O)=O)c1)C(=O)[*:2])[*:1]; X187 = CC(=O)N1CC=C(c2ccc(Cl)cc2C[C@@H](C(=O)[*:2])N(C)[*:1])C1; X183 = CN([C@@H](Cc1cc(Cl)ccc1-c1ccc2nncn2c1)C(=O)[*:2])[*:1]; X189 = CN([C@@H](Cc1cc(Cl)ccc1-c1ccc2scnc2c1)C(=O)[*:2])[*:1]; X162 = COc1cncc(-c2ccc(Cl)cc2C[C@@H](C(=O)[*:2])N(C)[*:1])c1; NMehhhLys(Me) = CN([C@@H](CCCCCCCN(C)[*:3])C(=O)[*:2])[*:1]; X118 = Cc1cc(-c2ccc(Cl)cc2C[C@@H](C(=O)[*:2])N(C)[*:1])cnn1; X180 = CN([C@@H](Cc1cc(F)ccc1-c1cnn2c1CCC2)C(=O)[*:2])[*:1]; X188 = CN([C@@H](Cc1cc(Cl)ccc1-c1ccn(C)n1)C(=O)[*:2])[*:1]; X207 = CN([C@@H](Cc1cc(F)ccc1-c1cn(C)cn1)C(=O)[*:2])[*:1]; X194 = CN([C@@H](Cc1cc(Cl)ccc1-c1ccnnc1)C(=O)[*:2])[*:1]; NMe(hhhLys) = CN([C@@H](CCCCCCCN[*:3])C(=O)[*:2])[*:1]; cBuCO(3,3-F2-1-CF3) = O=C(C1(C(F)(F)F)CC(F)(F)C1)*; X182 = N#Cc1ccc(CC[C@H](N[*:1])C(=O)[*:2])cn1; Pro(trans-4-F) = O=C(O)[C@@H]1C[C@@H](F)CN1; Gly(cPr) = N[C@H](C(=O)O)C1CC1
Key:
CyclinA2/CDK2 = target: T1, CyclinA2/CDK2 (Homo sapiens, UniProt P20248); test: Fluorescence Polarization (FP) competitive binding assay, Cyclin A2/Cdk2;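 also: plates equilibrated two hours at room temperature before polarization reading, IC50 fitted from eight-concentration compound titration curves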
T1 construct: purchased CRELUX Protein Services

CyclinB1/CDK1 = target: T2, CyclinB1/CDK1 (Homo sapiens, UniProt P14635); test: Fluorescence Polarization (FP) competitive binding assay, Cyclin B1/Cdk1;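 also: fluorescence polarization read after equilibration at room temperature, with IC50 taken from serially diluted dose-response curves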
T2 construct: purchased Eurofins, discovery 14-450

CyclinE1/CDK2 = target: T3, CyclinE1/CDK2 (Homo sapiens, UniProt P24864); test: Fluorescence Polarization (FP) competitive binding assay, Cyclin E1/Cdk2;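 also: readings taken after two-hour equilibration at room temperature in HEPES buffer with NaCl, DTT, NP-40 and BSA, IC50 fitted from eight-concentration serial dilution series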
T3 construct: purchased Eurofins, discovery 14-475

NCI-H1048 cells = test: MTT proliferation assay, NCI-H1048; assay type: cell-based; settings: 5 days compound exposure, 1:3 serial dilution starting at 10 μM;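 also: Dose-response in 96-well plates over 8 or 10 concentration points, with exposure spanning 3-4 cell doublings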
OVCAR3 cells = test: MTT proliferation assay, OVCAR3; assay type: cell-based; settings: 5 days compound exposure, 1:3 serial dilution starting at 10 μM;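 also: compound given as an 8- or 10-point series, one day after plating, with exposure covering roughly 3-4 cell doublings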
[1] = 8 nM Cyclin A2/Cdk2, 2 nM FAM probe, average of 2-3 independent experiments, read-out: Cyclin A FP IC50
[2] = 10 nM Cyclin B1/Cdk1, 2 nM FAM probe; average of 2-3 independent experiments; read-out: Cyclin B FP IC50
[3] = 10 nM Cyclin E1/Cdk2, 2 nM FAM probe, average of 2-3 independent experiments, read-out: Cyclin E FP IC50

Structure (SMILES)	IC50 (CyclinA2/CDK2; [1]) [nM]	IC50 (CyclinB1/CDK1; [2]) [nM]	IC50 (CyclinE1/CDK2; [3]) [nM]	GI50 (NCI-H1048 cells) [nM]	GI50 (OVCAR3 cells) [nM]	IC50 (CyclinA2/CDK2) [nM]	IC50 (CyclinB1/CDK1; read-out: Cyclin B FP IC50; 10 nM Cyclin B1/Cdk1, 2 nM FAM probe; average of 2-3 independent experiments) [nM]	IC50 (CyclinE1/CDK2) [nM]
CC(C)C[C@@H]1NC(=O)[C@@H](N(C)C(=O)[C@@H](NC(=O)[C@@H]2C[C@@H](F)CN2C(=O)C2(C(F)(F)F)CC(F)(F)C2)C2CC2)CCCCCCCN(C)C(=O)[C@H](Cc2cc(Cl)ccc2-c2ccnnc2)N(C)C1=O [Example 292] ({cBuCO(3,3-F2-1-CF3)}-[Pro(trans-4-F)][Gly(cPr)][NMehhhLys(Me)]L[X194]; lactam 3-C)	60	20	2880	70	110	–	–	–
CC(C)C[C@@H]1NC(=O)[C@@H](N(C)C(=O)[C@H](CCc2ccc(C#N)nc2)NC(=O)[C@@H]2C[C@@H](F)CN2C(=O)C2(C(F)(F)F)CC(F)(F)C2)CCCCCCCN(C)C(=O)[C@H](Cc2cc(Cl)ccc2-c2ccc(N3CCOCC3)cc2)N(C)C1=O [Example 416] ({cBuCO(3,3-F2-1-CF3)}-[Pro(trans-4-F)][X182][NMehhhLys(Me)]L[NMePhe(2-(4-MorPh),5-Cl)]; lactam 3-C)	40	20	3980	30	40	–	–	–
COc1cncc(-c2ccc(Cl)cc2C[C@H]2C(=O)N(C)CCCCCCC[C@H](N(C)C(=O)[C@@H](NC(=O)[C@@H]3C[C@@H](F)CN3C(=O)C3(C(F)(F)F)CC(F)(F)C3)C3CC3)C(=O)N[C@@H](CC(C)C)C(=O)N2C)c1 [Example 199] ({cBuCO(3,3-F2-1-CF3)}-[Pro(trans-4-F)][Gly(cPr)][NMehhhLys(Me)]L[X162]; lactam 3-C)	30	20	910	30	50	–	–	–
CC(C)C[C@@H]1NC(=O)[C@@H](N(C)C(=O)[C@@H](NC(=O)[C@@H]2C[C@@H](F)CN2C(=O)C2(C(F)(F)F)CC(F)(F)C2)C2CC2)CCCCCCCN(C)C(=O)[C@H](Cc2cc(F)ccc2C2=CC3CCC(C2)N3C(=O)C(C)C)N(C)C1=O (stereo partly drawn) [Example 150] ({cBuCO(3,3-F2-1-CF3)}-[Pro(trans-4-F)][Gly(cPr)][NMehhhLys(Me)]L[X150]; lactam 3-C)	20	20	210	20	40	–	–	–
CC(C)C[C@@H]1NC(=O)[C@@H](N(C)C(=O)[C@@H](NC(=O)[C@@H]2C[C@@H](F)CN2C(=O)C2(C(F)(F)F)CC(F)(F)C2)C2CC2)CC=CCCCCN(C)C(=O)[C@H](Cc2cc(F)ccc2-c2cnn(C3CC3)c2)N(C)C1=O [Example 86]	60	20	250	20	20	–	–	–
CC(C)C[C@@H]1NC(=O)[C@@H](N(C)C(=O)[C@@H](NC(=O)[C@@H]2C[C@@H](F)CN2C(=O)C2(C(F)(F)F)CC(F)(F)C2)C2CC2)CCCCCCCN(C)C(=O)[C@H](Cc2cc(F)ccc2-c2ccn(S(C)(=O)=O)c2)N(C)C1=O [Example 306] ({cBuCO(3,3-F2-1-CF3)}-[Pro(trans-4-F)][Gly(cPr)][NMehhhLys(Me)]L[X130]; lactam 3-C)	20	20	200	10	10	–	–	–
CC(C)C[C@@H]1NC(=O)[C@@H](NC(=O)[C@@H](NC(=O)[C@@H]2C[C@@H](F)CN2C(=O)C2(C(F)(F)F)CC(F)(F)C2)C2CC2)CCCCCCCNC(=O)[C@H](Cc2cc(Cl)ccc2Cl)N(C)C1=O [Example 8]	30	20	100	20	30	–	–	–
CC(C)C[C@@H]1NC(=O)[C@@H](N(C)C(=O)[C@@H](NC(=O)[C@@H]2C[C@@H](F)CN2C(=O)C2(C(F)(F)F)CC(F)(F)C2)C2CC2)CCCCCCCNC(=O)[C@H](Cc2cc(Cl)ccc2C2=C[C@@H]3CC[C@H](C2)N3C(=O)C(C)C)N(C)C1=O [Example 312] ({cBuCO(3,3-F2-1-CF3)}-[Pro(trans-4-F)][Gly(cPr)][NMe(hhhLys)]L[X146]; lactam 3-C)	20	20	740	20	30	–	–	–
CC(C)C[C@@H]1NC(=O)[C@@H](N(C)C(=O)[C@@H](NC(=O)[C@@H]2C[C@@H](F)CN2C(=O)C2(C(F)(F)F)CC(F)(F)C2)C2CC2)CCCCCCCN(C)C(=O)[C@H](Cc2cc(Cl)ccc2-c2ccc3scnc3c2)N(C)C1=O [Example 169] ({cBuCO(3,3-F2-1-CF3)}-[Pro(trans-4-F)][Gly(cPr)][NMehhhLys(Me)]L[X189]; lactam 3-C)	30	20	1090	20	30	–	–	–
CC(=O)N1CC=C(c2ccc(Cl)cc2C[C@H]2C(=O)N(C)CCCCCCC[C@H](N(C)C(=O)[C@@H](NC(=O)[C@@H]3C[C@@H](F)CN3C(=O)C3(C(F)(F)F)CC(F)(F)C3)C3CC3)C(=O)N[C@@H](CC(C)C)C(=O)N2C)C1 [Example 308] ({cBuCO(3,3-F2-1-CF3)}-[Pro(trans-4-F)][Gly(cPr)][NMehhhLys(Me)]L[X187]; lactam 3-C)	20	20	840	10	10	–	–	–
CC(C)C[C@@H]1NC(=O)[C@@H](N(C)C(=O)[C@@H](NC(=O)[C@@H]2C[C@@H](F)CN2C(=O)C2(C(F)(F)F)CC(F)(F)C2)C2CC2)C/C=C\CCCCN(C)C(=O)[C@H](Cc2cc(Cl)ccc2-c2cnn(S(C)(=O)=O)c2)N(C)C1=O [Example 298]	50	20	440	10	20	–	–	–
CC(C)C[C@@H]1NC(=O)[C@@H](N(C)C(=O)[C@@H](NC(=O)[C@@H]2C[C@@H](F)CN2C(=O)C2(C(F)(F)F)CC(F)(F)C2)C2CC2)CCCCCCCN(C)C(=O)[C@H](Cc2cc(F)ccc2-c2cn(C)cn2)N(C)C1=O [Example 164] ({cBuCO(3,3-F2-1-CF3)}-[Pro(trans-4-F)][Gly(cPr)][NMehhhLys(Me)]L[X207]; lactam 3-C)	70	20	930	30	30	–	–	–
CC(C)C[C@@H]1NC(=O)[C@@H](N(C)C(=O)[C@@H](NC(=O)[C@@H]2C[C@@H](F)CN2C(=O)C2(C(F)(F)F)CC(F)(F)C2)C2CC2)CCCCCCCN(C)C(=O)[C@H](Cc2cc(F)ccc2-c2cnn3c2CCC3)N(C)C1=O [Example 148] ({cBuCO(3,3-F2-1-CF3)}-[Pro(trans-4-F)][Gly(cPr)][NMehhhLys(Me)]L[X180]; lactam 3-C)	30	20	310	10	10	–	–	–
Cc1cc(-c2ccc(Cl)cc2C[C@H]2C(=O)NCCCCCCC[C@H](N(C)C(=O)[C@@H](NC(=O)[C@@H]3C[C@@H](F)CN3C(=O)C3(C(F)(F)F)CC(F)(F)C3)C3CC3)C(=O)N[C@@H](CC(C)C)C(=O)N2C)cnn1 [Example 295] ({cBuCO(3,3-F2-1-CF3)}-[Pro(trans-4-F)][Gly(cPr)][NMe(hhhLys)]L[X118]; lactam 3-C)	70	20	3690	80	160	–	–	–
CC(C)C[C@@H]1NC(=O)[C@@H](N(C)C(=O)[C@@H](NC(=O)[C@@H]2C[C@@H](F)CN2C(=O)C2(C(F)(F)F)CC(F)(F)C2)C2CC2)CCCCCCCN(C)C(=O)[C@H](Cc2cc(Cl)ccc2-c2ccc3nncn3c2)N(C)C1=O [Example 178] ({cBuCO(3,3-F2-1-CF3)}-[Pro(trans-4-F)][Gly(cPr)][NMehhhLys(Me)]L[X183]; lactam 3-C)	50	20	5460	1180	2570	–	–	–
CC(C)C[C@@H]1NC(=O)[C@@H](N(C)C(=O)[C@H](CCC(=O)O)NC(=O)[C@@H]2C[C@@H](F)CN2C(=O)C2(C(F)(F)F)CC(F)(F)C2)CCCCCCCN(C)C(=O)[C@H](Cc2cc(Cl)ccc2-c2ccc(N3CCOCC3)cc2)N(C)C1=O [Example 418] ({cBuCO(3,3-F2-1-CF3)}-[Pro(trans-4-F)]E[NMehhhLys(Me)]L[NMePhe(2-(4-MorPh),5-Cl)]; lactam 3-C)	120	20	5260	1420	1150	–	–	–
CC(C)C[C@@H]1NC(=O)[C@@H](N(C)C(=O)[C@@H](NC(=O)[C@@H]2C[C@@H](F)CN2C(=O)C2(C(F)(F)F)CC(F)(F)C2)C2CC2)CCCCCCCN(C)C(=O)[C@H](Cc2cc(Cl)ccc2-c2ccn(C)n2)N(C)C1=O [Example 205] ({cBuCO(3,3-F2-1-CF3)}-[Pro(trans-4-F)][Gly(cPr)][NMehhhLys(Me)]L[X188]; lactam 3-C)	–	–	–	20	30	30	20	480
CC(C)C[C@@H]1NC(=O)[C@@H](N(C)C(=O)[C@@H](NC(=O)[C@@H]2C[C@@H](F)CN2C(=O)C2(C(F)(F)F)CC(F)(F)C2)C2CC2)CCCCCCCN(C)C(=O)[C@H](Cc2cc(Cl)ccc2-c2ccc(N3CCOCC3)c(F)c2F)N(C)C1=O [Example 386] ({cBuCO(3,3-F2-1-CF3)}-[Pro(trans-4-F)][Gly(cPr)][NMehhhLys(Me)]L[X191]; lactam 3-C)	20	20	900	30	20	–	–	–
CC(C)C[C@@H]1NC(=O)[C@@H](N(C)C(=O)[C@@H](NC(=O)[C@@H]2C[C@@H](F)CN2C(=O)C2(C(F)(F)F)CC(F)(F)C2)C2CC2)CCCCCCCNC(=O)[C@H](Cc2cc(Cl)ccc2C2=CCN(S(C)(=O)=O)CC2)N(C)C1=O [Example 284] ({cBuCO(3,3-F2-1-CF3)}-[Pro(trans-4-F)][Gly(cPr)][NMe(hhhLys)]L[X142]; lactam 3-C)	20	20	1740	10	10	–	–	–
